By IC50 is commonly meant the concentration that inhibits the measured activity by half. Read a high IC50 as weaker potency in that assay.

The structures appear in SMILES notation.

The experiment has as its target T1, Interstitial collagenase (Homo sapiens, UniProt P03956).
T1 sequence (P03956 whole entry): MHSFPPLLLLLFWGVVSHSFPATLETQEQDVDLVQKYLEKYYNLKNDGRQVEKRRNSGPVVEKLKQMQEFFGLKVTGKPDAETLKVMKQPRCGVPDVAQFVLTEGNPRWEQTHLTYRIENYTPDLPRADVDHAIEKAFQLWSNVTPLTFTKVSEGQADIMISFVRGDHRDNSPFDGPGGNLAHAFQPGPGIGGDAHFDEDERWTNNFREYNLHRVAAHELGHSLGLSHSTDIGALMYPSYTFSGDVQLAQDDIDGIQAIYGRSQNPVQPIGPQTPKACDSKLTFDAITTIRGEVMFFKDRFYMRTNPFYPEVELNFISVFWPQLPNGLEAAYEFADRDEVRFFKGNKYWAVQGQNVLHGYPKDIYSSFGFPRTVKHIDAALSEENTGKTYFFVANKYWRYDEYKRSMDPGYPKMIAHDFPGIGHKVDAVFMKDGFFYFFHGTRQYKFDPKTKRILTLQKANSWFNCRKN
In words: Inhibition of human fibroblast collagenase.

`CNC(=O)[C@H](Cc1ccccc1)NC(=O)[C@H](CC(C)C)NC(CCN1C(=O)c2ccccc2C1=O)P(=O)(O)O` (stereo not given in full) had an IC50 of 360 nM.
Turning to `CNC(=O)[C@H](CC(C)C)NC(=O)[C@H](CC(C)C)CP(=O)(O)CNC(C)=O`, the IC50 came out at 37000 nM.
`CNC(=O)[C@H](Cc1ccccc1)NC(=O)[C@H](CC(C)C)N[C@@H](CCN1C(=O)c2cccc3c(Br)ccc(c23)C1=O)P(=O)(O)O` came in with an IC50 of 20 nM.
As to `CNC(=O)[C@H](Cc1ccccc1)NC(=O)[C@H](CC(C)C)NC(CN1C(=O)c2cccc3cccc(c23)C1=O)P(=O)(O)O` (stereo not given in full), the IC50 was determined as 2120 nM.
The result for `CNC(=O)[C@H](Cc1ccccc1)NC(=O)[C@H](CC(C)C)NC(CCCN1C(=O)c2cccc3cccc(c23)C1=O)P(=O)(O)O` (stereo not given in full) reads 730 nM.
Consider `CNC(=O)[C@H](Cc1ccccc1)NC(=O)[C@H](CC(C)C)N[C@H](CCN1C(=O)c2cccc3cccc(c23)C1=O)P(=O)(O)O`, for which the midpoint of inhibition, the IC50, lay at 150 nM.
`CNC(=O)[C@H](Cc1ccccc1)NC(=O)[C@H](CC(C)C)NC(CCN1C(=O)c2cccc3cccc(c23)C1=O)[PH](=O)O` (stereo not given in full): the IC50 is over 100000 nM.
To `CNC(=O)[C@H](Cc1ccccc1)NC(=O)[C@H](CC(C)C)N[C@@H](CCN1C(=O)c2ccccc2C1=O)P(=O)(O)O` belongs 190 nM; to `CNC(=O)[C@H](Cc1ccccc1)NC(=O)[C@H](CC(C)C)N[C@H](CCN1C(=O)c2cccc3c(Br)ccc(c23)C1=O)P(=O)(O)O`, 1630 nM; to `CNC(=O)[C@H](Cc1ccccc1)NC(=O)[C@H](CC(C)C)N[C@@H](CCN1C(=O)c2cccc3cccc(c23)C1=O)P(=O)(O)O`, 30 nM.

(Values after ChEMBL document CHEMBL1127722, “Aminophosphonic acid containing inhibitors of human collagenase: modification of the P1 residue” (Bioorg Med Chem Lett, 1994).)
